Laboratory results reported in ChEMBL document CHEMBL4406807, “Discovery of 3,4,6-Trisubstituted Piperidine Derivatives as Orally Active, Low hERG Blocking Akt Inhibitors via Conformational Restriction and Structure-Based Design” (J Med Chem, 2019).

Tests used:
[1] = Toxicity in ICR mouse assessed as reduction in red blood cells at 40 mg/kg, ig administered once daily for 7 days; assay type: organism-based; conditions: in vivo, po, 168 h
[2] = Half-life in ICR mouse at 20 mg/kg, po measured up to 48 hrs by LC-MS/MS analysis; assay type: ADME, organism-based; conditions: in vivo
[3] = Microsomal stability in monkey liver microsomes assessed as compound remaining at 100 ug/ml in presence of NADPH measured at 1.5 hrs by LC/MS analysis; assay type: ADME, Macaca mulatta, Microsome; conditions: rhesus monkey, read-out: Stability
[4] = Toxicity in ICR mouse assessed as reduction in mouse survival at 20 to 40 mg/kg, ig administered once daily for 7 days; assay type: organism-based; conditions: in vivo, po, 168 h
[5] = molecular target: T1, Serine/threonine-protein kinase Sgk1 (Homo sapiens, UniProt O00141); assay: Inhibition of human SGK by mobility shift assay
T1 sequence (O00141 whole entry): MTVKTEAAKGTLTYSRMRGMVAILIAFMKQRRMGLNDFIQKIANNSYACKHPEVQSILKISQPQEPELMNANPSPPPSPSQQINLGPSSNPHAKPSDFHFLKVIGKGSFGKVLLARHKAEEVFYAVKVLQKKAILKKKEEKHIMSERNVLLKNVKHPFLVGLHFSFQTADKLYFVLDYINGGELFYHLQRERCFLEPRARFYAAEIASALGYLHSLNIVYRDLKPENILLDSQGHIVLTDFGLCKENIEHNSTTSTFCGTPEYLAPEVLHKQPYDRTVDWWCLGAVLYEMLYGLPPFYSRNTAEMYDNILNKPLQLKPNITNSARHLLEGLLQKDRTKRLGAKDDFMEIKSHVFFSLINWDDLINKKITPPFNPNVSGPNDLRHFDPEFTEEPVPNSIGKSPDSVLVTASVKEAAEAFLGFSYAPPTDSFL

[6] = Toxicity in ICR mouse assessed as reduction in hemoglobin level at 40 mg/kg, ig administered once daily for 7 days; assay type: organism-based; conditions: in vivo, po, 168 h
LNCaP = assay: Antiproliferative activity against human LNCAP cells; assay type: functional, cell-based
[7] = molecular target: Ribosomal protein S6 kinase alpha-1 (Homo sapiens, UniProt Q15418); assay: Inhibition of RSK1 (unknown origin) by mobility shift assay
[8] = Toxicity in BALB/c nude mouse xenografted with human MM1S cells assessed as reduction in body weight at 10 mg/kg, po administered once daily for 22 days relative to control; assay type: organism-based; parameters: scale not given: the % may be the effect or the level left; conditions: in vivo, 528 h
[9] = AUC (0 to infinity) in ICR mouse at 20 mg/kg, po measured up to 48 hrs by LC-MS/MS analysis; assay type: ADME, organism-based; parameters: dose 20 mg/kg, time infinity, route oral; conditions: in vivo
[10] = Microsomal stability in dog liver microsomes assessed as compound remaining at 100 ug/ml in presence of NADPH measured at 1.5 hrs by LC/MS analysis; assay type: ADME, Canis lupus familiaris, Microsome; conditions: read-out: Stability
[11] = molecular target: RAC-beta serine/threonine-protein kinase (Homo sapiens, UniProt P31751); assay: Inhibition of human Akt2 by mobile shift assay
[12] = molecular target: Rho-associated protein kinase 1 (Homo sapiens, UniProt Q13464); assay: Inhibition of human ROCK1 by mobile shift assay
HCT-116 = assay: cells; conditions: Homo sapiens, HCT-116, 72 h
[13] = Toxicity in ICR mouse assessed as reduction in specific volume of RBC at 40 mg/kg, ig administered once daily for 7 days; assay type: organism-based; conditions: in vivo, po, 168 h
[14] = molecular target: RAC-gamma serine/threonine-protein kinase (Homo sapiens, UniProt Q9Y243); assay: Inhibition of Akt3 (unknown origin) by mobile shift assay
[15] = Microsomal stability in rat liver microsomes assessed as compound remaining at 100 ug/ml in presence of NADPH measured at 1.5 hrs by LC/MS analysis; assay type: ADME, Microsome; conditions: read-out: Stability
[16] = molecular target: Serine/threonine-protein kinase AKT (Homo sapiens, UniProt P31751+Q9Y243+P31749); assay: Inhibition of Akt in human LNCaP cells assessed as reduction in PRAS40 phosphorylation at T246 residue after 1 hr by ELISA; assay type: cell-based
[17] = Cmax in ICR mouse at 20 mg/kg, po measured up to 48 hrs by LC-MS/MS analysis; assay type: ADME, organism-based; parameters: dose 20 mg/kg, route oral; conditions: in vivo
[18] = Toxicity in ICR mouse assessed as reduction in creatinine level at 40 mg/kg, ig administered once daily for 7 days; assay type: organism-based; conditions: in vivo, po, 168 h
[19] = Toxicity in po dosed BALB/c nude mouse xenografted with human MM1S cells assessed as maximum tolerated dose administered once daily for 22 days; assay type: organism-based; conditions: in vivo
[20] = Toxicity in BALB/c nude mouse xenografted with human MM1S cells assessed as reduction in mouse survival at 10 mg/kg, po administered once daily for 22 days; assay type: organism-based; conditions: in vivo, 528 h
hERG (KCNH2) = hERG (KCNH2) (Homo sapiens, UniProt Q12809); assay: Inhibition of ERG in human HEK293 cells at 3 uM at -80 mV holding potential by whole-cell patch clamp assay relative to control; assay type: cell-based; conditions: HEK293 cells expressing ERG
[21] = molecular target: RAC-alpha serine/threonine-protein kinase (Homo sapiens, UniProt P31749)
Description: Inhibition of human Akt1 expressed in Escherichia coli using STK Substrate 2-biotin as substrate incubated for 1 hr by HTRF assay

Protein kinase C (PKC) = assay: Inhibition of PKC (unknown origin); assay type: protein assay, Homo sapiens
[22] = Microsomal stability in mouse liver microsomes assessed as compound remaining at 100 ug/ml in presence of NADPH measured at 1.5 hrs by LC/MS analysis; assay type: ADME, Microsome; conditions: read-out: Stability
OVCAR-8 = assay: Antiproliferative activity against human OVCAR8 cells; assay type: functional, cell-based
MM1.S = assay: Antitumor activity against human MM1S cells xenografted in BALB/c nude mouse assessed as tumor growth inhibition at 10 mg/kg, po administered once daily for 22 days relative to control; assay type: functional; conditions: 528 h, read-out: TGI
[23] = Toxicity in ICR mouse assessed as induction of heavy gastrointestinal hemorrhage by autopsy analysis; conditions: in vivo
[24] = Oral bioavailability in ICR mouse at 20 mg/kg measured up to 48 hrs by LC-MS/MS analysis; assay type: ADME, organism-based; conditions: in vivo
[25] = molecular target: Ribosomal protein S6 kinase beta-1 (Homo sapiens, UniProt P23443); assay: Inhibition of human P70S6K by mobility shift assay
Sequence of Ribosomal protein S6 kinase beta-1 (P23443 whole entry): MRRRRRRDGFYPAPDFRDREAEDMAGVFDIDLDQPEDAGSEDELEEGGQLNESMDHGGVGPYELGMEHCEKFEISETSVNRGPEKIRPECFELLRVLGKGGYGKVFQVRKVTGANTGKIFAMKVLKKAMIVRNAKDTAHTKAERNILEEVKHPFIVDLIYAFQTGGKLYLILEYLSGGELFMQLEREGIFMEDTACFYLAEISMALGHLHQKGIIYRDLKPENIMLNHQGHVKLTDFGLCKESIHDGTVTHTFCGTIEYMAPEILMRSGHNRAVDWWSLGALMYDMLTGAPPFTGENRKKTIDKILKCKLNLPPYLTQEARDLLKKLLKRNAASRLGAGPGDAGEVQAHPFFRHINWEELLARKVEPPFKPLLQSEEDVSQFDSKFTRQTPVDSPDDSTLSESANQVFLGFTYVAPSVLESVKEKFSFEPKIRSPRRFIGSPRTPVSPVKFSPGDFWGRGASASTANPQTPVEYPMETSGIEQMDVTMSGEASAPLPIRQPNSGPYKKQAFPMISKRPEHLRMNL

Sequence of RAC-beta serine/threonine-protein kinase (P31751 whole entry): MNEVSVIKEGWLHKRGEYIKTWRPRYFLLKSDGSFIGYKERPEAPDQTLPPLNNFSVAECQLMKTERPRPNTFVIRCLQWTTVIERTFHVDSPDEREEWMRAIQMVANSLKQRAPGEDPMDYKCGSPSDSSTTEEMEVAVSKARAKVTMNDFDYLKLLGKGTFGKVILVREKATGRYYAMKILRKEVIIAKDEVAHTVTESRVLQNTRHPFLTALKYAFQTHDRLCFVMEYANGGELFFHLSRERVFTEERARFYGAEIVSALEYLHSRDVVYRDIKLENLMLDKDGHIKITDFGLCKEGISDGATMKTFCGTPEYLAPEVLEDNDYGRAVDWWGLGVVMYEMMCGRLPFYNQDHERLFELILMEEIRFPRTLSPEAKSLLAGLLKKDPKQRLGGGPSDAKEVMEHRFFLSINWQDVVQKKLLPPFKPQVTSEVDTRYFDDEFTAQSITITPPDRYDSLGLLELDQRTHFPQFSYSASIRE
Sequence of RAC-alpha serine/threonine-protein kinase (P31749 whole entry): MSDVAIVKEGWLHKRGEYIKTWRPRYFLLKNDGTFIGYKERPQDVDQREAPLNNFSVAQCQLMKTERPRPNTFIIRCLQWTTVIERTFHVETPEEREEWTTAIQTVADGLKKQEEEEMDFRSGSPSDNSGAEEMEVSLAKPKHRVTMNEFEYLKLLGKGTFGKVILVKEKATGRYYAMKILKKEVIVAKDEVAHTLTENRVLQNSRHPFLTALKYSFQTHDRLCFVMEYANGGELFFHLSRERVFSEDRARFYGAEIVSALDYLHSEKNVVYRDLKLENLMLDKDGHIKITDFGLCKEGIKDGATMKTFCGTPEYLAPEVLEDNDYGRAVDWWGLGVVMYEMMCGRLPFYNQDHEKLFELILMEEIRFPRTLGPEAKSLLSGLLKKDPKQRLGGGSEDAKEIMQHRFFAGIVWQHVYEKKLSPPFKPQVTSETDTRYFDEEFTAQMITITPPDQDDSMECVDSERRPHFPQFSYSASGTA
Sequence of Rho-associated protein kinase 1 (Q13464 whole entry): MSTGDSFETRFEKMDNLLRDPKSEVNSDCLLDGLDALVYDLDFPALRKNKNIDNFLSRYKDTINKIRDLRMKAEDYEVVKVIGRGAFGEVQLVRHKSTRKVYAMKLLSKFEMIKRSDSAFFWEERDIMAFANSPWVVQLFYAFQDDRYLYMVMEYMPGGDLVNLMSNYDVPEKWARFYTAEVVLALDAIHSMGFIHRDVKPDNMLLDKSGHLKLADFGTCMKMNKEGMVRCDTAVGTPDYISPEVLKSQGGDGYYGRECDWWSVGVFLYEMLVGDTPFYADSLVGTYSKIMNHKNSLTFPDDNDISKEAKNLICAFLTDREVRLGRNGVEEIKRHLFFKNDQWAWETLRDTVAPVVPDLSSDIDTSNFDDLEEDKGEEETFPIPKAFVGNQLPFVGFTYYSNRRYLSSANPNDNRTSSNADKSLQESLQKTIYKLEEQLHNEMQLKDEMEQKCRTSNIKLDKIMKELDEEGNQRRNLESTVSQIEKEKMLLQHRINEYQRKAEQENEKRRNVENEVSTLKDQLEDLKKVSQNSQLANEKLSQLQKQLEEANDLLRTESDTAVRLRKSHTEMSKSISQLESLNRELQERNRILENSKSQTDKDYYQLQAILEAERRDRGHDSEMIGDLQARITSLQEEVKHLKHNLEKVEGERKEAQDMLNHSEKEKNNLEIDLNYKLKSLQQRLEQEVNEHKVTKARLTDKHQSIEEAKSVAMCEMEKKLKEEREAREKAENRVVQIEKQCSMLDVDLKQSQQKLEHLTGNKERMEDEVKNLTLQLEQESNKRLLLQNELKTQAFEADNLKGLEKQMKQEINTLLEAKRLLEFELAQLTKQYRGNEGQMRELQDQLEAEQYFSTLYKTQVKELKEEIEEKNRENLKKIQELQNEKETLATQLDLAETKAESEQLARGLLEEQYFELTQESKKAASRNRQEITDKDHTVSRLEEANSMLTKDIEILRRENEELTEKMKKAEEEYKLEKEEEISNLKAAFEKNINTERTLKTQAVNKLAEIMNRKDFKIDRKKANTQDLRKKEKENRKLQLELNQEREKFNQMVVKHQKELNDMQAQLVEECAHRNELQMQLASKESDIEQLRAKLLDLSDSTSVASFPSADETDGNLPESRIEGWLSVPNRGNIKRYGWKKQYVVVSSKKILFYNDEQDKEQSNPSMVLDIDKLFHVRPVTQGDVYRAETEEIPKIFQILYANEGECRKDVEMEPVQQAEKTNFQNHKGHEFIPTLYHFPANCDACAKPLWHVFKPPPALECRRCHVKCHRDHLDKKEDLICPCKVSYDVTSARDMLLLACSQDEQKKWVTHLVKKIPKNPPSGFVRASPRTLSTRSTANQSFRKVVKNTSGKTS
Sequence of hERG (KCNH2) (Q12809 whole entry): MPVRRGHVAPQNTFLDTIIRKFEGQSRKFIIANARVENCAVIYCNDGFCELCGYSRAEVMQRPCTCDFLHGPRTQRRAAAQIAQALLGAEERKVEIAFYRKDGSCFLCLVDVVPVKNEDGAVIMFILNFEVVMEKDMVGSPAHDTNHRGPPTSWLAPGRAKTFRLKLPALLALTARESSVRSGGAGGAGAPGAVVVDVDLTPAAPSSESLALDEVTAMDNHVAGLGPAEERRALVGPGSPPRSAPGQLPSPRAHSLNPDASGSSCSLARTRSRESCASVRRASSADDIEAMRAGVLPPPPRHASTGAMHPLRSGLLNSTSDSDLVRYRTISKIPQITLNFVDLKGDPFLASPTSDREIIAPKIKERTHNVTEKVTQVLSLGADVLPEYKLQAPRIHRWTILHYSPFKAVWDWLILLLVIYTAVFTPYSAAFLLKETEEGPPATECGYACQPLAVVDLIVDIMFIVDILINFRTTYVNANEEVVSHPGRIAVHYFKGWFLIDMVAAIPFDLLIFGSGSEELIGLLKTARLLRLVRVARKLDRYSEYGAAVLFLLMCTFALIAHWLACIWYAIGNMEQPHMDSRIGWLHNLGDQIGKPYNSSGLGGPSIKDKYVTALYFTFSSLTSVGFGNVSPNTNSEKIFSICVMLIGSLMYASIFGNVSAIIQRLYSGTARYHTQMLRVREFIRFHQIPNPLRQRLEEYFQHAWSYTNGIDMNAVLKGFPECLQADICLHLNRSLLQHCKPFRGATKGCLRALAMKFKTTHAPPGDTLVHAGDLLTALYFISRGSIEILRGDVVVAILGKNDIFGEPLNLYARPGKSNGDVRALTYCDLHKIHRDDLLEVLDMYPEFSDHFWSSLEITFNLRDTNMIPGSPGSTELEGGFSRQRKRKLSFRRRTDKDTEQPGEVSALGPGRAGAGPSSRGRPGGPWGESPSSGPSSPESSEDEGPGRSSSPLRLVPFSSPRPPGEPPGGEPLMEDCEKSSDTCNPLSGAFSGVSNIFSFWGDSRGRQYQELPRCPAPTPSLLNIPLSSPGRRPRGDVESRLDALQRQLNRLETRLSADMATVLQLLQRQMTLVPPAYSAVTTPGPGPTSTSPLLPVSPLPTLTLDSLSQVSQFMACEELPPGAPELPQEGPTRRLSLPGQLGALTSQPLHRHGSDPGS
Sequence of RAC-gamma serine/threonine-protein kinase (Q9Y243 whole entry): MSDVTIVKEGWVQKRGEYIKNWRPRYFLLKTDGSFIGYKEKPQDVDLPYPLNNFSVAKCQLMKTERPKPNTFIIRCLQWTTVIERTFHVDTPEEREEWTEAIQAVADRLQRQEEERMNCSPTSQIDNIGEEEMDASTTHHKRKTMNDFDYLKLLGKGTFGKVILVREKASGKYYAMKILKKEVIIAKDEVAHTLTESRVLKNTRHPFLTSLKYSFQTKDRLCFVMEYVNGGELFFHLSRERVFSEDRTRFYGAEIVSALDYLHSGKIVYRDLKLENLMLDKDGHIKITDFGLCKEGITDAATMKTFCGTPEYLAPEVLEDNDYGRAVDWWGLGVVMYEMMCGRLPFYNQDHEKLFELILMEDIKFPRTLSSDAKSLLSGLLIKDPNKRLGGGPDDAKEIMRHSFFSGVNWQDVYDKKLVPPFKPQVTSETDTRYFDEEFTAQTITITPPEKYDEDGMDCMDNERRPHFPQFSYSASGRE

**Q.** Which Activity [1] does the source give for Cn1ncc(Cl)c1-c1cc(C(=O)N[C@@H]2CNCC[C@H]2c2ccc(F)c(F)c2)oc1Cl.O=C(O)C(O)C(O)C(=O)O here?
**A.** Toxic

**Q.** And the half-life [2]?
**A.** 10.7 h

**Q.** And the remaining at 1.5 h, 100 ug/ml [3]?
**A.** 39.9%

**Q.** And the Activity [4]?
**A.** Toxic

**Q.** What about the IC50 [5] of the same molecule?
**A.** 59 nM

**Q.** And the Activity [6]?
**A.** Toxic

**Q.** And the IC50 (LNCaP)?
**A.** 60 nM

**Q.** And the IC50 [7]?
**A.** 48 nM

**Q.** What about the Activity [8] of the same molecule?
**A.** <= 25%

**Q.** And the AUC [9]?
**A.** 6670 ng·h/mL

**Q.** What about the remaining at 1.5 h, 100 ug/ml [10] of the same molecule?
**A.** 86.9%

**Q.** And the IC50 [11]?
**A.** < 0.64 nM

**Q.** What about the IC50 [12] of the same molecule?
**A.** 20 nM

**Q.** And the IC50 (HCT-116)?
**A.** 210 nM

**Q.** What about the Activity [13] of the same molecule?
**A.** Toxic

**Q.** And the IC50 [14]?
**A.** 0.1 nM

**Q.** What about the remaining at 1.5 h, 100 ug/ml [15] of the same molecule?
**A.** 69.7%

**Q.** What about the IC50 [16] of the same molecule?
**A.** 21.1 nM

**Q.** What about the Cmax [17] of the same molecule?
**A.** 398 ng/mL

**Q.** And the Activity [18]?
**A.** Toxic

**Q.** What about the MTD at 528 h [19] of the same molecule?
**A.** < 10 mg/kg

**Q.** And the Activity [20]?
**A.** Toxic

**Q.** What about the inhibition at 3 µM (hERG (KCNH2)) of the same molecule?
**A.** 62.1%

**Q.** What about the IC50 [21] of the same molecule?
**A.** 3 nM

**Q.** What about the IC50 (Protein kinase C (PKC)) of the same molecule?
**A.** 156 nM

**Q.** What about the remaining at 1.5 h, 100 ug/ml [22] of the same molecule?
**A.** 89.9%

**Q.** And the IC50 (OVCAR-8)?
**A.** 40 nM

**Q.** And the inhibition in vivo at 10 mg/kg (MM1.S)?
**A.** 87.5%

**Q.** What about the Activity [23] of the same molecule?
**A.** Toxic

**Q.** And the bioavailability [24]?
**A.** 97.9%

**Q.** What about the IC50 [25] of the same molecule?
**A.** 7 nM
